Assay type in all cases: functional, cell-based
Assay [1] concerns CCRF-CEM. The assay is described as follows: In vitro antiviral activity expressed as IC50 against HIV (CEM cells); 11-25. The conditions noted are these: Homo sapiens.
Assay [2] deals with CCRF-CEM. The assay is described as follows: In vitro antiviral activity expressed as IC50 against HIV (CEM cells). The conditions noted are these: Homo sapiens.
A further assay has as its system Vero. In words: In vitro antiviral activity expressed as IC50 against herpes simplex virus type 2 (HSV-2) in vero cells. The conditions noted are these: Chlorocebus sabaeus.

≈ marks a conversion by molar mass, not a printed value.

In general, IC50 refers to the concentration needed to halve the response being measured.

In the case of `CC(Cn1cnc2c(=O)[nH]c(N)nc21)OCP(=O)(O)O` (stereo not drawn), the IC50 in the assay with CCRF-CEM [1] worked out at 11 µg/mL (≈ 36.3 µM).
For the compound `Nc1nc(O)c2ncn([C@H]3CCC[C@@H]3OCP(=O)(O)O)c2n1`, the IC50 in the assay on CCRF-CEM [2] and with Vero was more than 100 µg/mL in each case.
As to `Nc1nc(O)c2ncn([C@H]3C=C[C@@H](OCP(=O)(O)O)C3)c2n1`, the half-maximal inhibitory concentration (IC50) is 66 µg/mL (≈ 202 µM) in the assay on CCRF-CEM [2] and more than 100 µg/mL in the assay with Vero.
`Nc1nc(O)c2ncn([C@@H]3C=C[C@H](OCP(=O)(O)O)C3)c2n1` showed an IC50 in the assay with CCRF-CEM [2] of 26 µg/mL (≈ 79.5 µM).
The same measure, in the same setting: the value for `CC(COCP(=O)(O)O)n1cnc2c(O)nc(N)nc21` (stereo not drawn) was 3 µg/mL (≈ 9.89 µM).
Turning to `Nc1nc(O)c2ncn([C@H]3CC[C@@H](OCP(=O)(O)O)C3)c2n1`, the IC50 with CCRF-CEM [2] and in the assay with Vero was more than 100 µg/mL throughout.
With `Nc1nc(O)c2ncn([C@H]3CCC[C@H]3OCP(=O)(O)O)c2n1`, the IC50 in the assay on CCRF-CEM [2] is 20 µg/mL (≈ 60.7 µM); in the assay with Vero, more than 100 µg/mL.
For the compound `Nc1nc2c(ncn2CCOCP(=O)(O)O)c(=O)[nH]1` [GS-438], the 50% inhibitory concentration (IC50) with CCRF-CEM [2] was determined as 0.2 µg/mL (≈ 0.692 µM); in the assay with Vero, 0.7 µg/mL (≈ 2.42 µM).

These data come from ChEMBL document CHEMBL1126432, “Synthesis and biological activity of carbocyclic derivatives of the potent antiviral agent 9-[2-(phosphonomethoxy)ethyl]guanine (PMEG)” (Bioorg Med Chem Lett, 1992).
